Source: patent US7232912B2, “Indazole compounds, pharmaceutical compositions, and methods for mediating or inhibiting cell proliferation” (Agouron Pharmaceuticals, Inc., priority 2000, dated 2007)
Blank lines part the entries; values can stand above or below the compound they belong to.

Assays:
[1] = target: T1, human CHK1 (Homo sapiens, UniProt O14757); experiment: CHK1 Assay (coupled spectrophotometric); assay type: biochemical
T1 construct: C-terminally His-tagged full-length human CHK1 (FL-CHK1) was expressed using the baculovirus/insect cell system; made in house; host or cells: baculovirus/insect cells
T1 sequence (O14757 1-476): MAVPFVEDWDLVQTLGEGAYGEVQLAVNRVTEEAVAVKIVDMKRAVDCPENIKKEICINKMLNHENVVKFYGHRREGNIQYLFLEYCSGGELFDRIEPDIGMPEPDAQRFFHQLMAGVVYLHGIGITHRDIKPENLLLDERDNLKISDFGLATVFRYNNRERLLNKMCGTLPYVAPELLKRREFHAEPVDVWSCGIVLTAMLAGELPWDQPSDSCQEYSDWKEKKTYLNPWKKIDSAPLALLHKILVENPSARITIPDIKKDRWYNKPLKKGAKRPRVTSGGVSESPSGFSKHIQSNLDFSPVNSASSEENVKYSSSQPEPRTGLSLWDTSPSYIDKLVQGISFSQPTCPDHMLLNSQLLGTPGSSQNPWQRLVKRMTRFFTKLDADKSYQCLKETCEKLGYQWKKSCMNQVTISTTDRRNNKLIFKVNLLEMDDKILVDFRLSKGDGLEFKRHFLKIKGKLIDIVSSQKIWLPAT
Text: C-terminally His-tagged full-length human CHK1 (FL-CHK1) was expressed using the baculovirus/insect cell system. It contains 6 histidine residues (6×His-tag) at the C-terminus of the 476 amino acid human CHK1. The protein was purified by conventional chromatographic techniques.
The production of ADP from ATP that accompanies phosphoryl transfer to the synthetic substrate peptide Syntide-2 ([…]) was coupled to oxidation of NADH using phosphoenolpyruvate (PEP) through the actions of pyruvate kinase (PK) and lactic dehydrogenase (LDH). The oxidation of NADH was monitored by following the decrease of absorbance at 340 nm (ε340=6.22 cm^−1 mM^−1) using a HP8452 spectrophotometer. Typical reaction solutions contained: […]; 0.15 mM NADH; 28 units of LDH/ml; 16 units of PK/ml; 3 mM DTT; 0.125 mM Syntide-2; 0.15 mM ATP; 25 mM MgCl2 in 50 mM TRIS, pH 7.5; and 400 mM NaCl. Assays were initiated with 10 nM of FL-CHK1. Ki values were determined by measuring initial enzyme activity in the presence of varying concentrations of test compounds. The data were analyzed using Enzyme Kinetic and Kaleidagraph software.

[2] = system: FAK; experiment: Coupled Spectrophotometric (FAK) Assay; assay type: biochemical
Protocol: Coupled Spectrophotometric (FAK) Assay
Tyrosine kinase assays were monitored using a Beckman DU 650 Spectrophotometer. Production of ADP was coupled to oxidation of NADH using phosphoenolpyruvate (PEP) through the actions of pyruvate kinase (PK) and lactic dehydrogenase (LDH). The oxidation of NADH was monitored by following the decrease in absorbance at 340 nm (ε340=6.22 cm^−1 mM^−1). Typical reaction solutions contained: 1 mM PEP, 250 μM NADH, 50 units of LDH/mL, 20 units of PK/mL, 5 mM DTT, in 200 mM Hepes, pH 7.5 and varying concentrations of poly(E4Y1), ATP and MgCl2. Assays were initiated with 40 nM of […].

Ki [1]: 81 µM
Compound: C(=C\c1n[nH]c2ccc(-c3cncc4ccccc34)cc12)/c1ccccc1 [Example 16]
FAK % Inhibition at 1 μM [2]: 47%

Compound: c1ccc2[nH]c(-c3n[nH]c4ccc(-c5cccc6[nH]ccc56)cc34)nc2c1 [Example 48, 3-(1H-Benzoimidazol-2-yl)-5-(1H-indol-4-yl)-1H-indazole]
Ki [1]: 7.82 µM

inhibition at 1 µM ([1]; read-out: CHK1 % inhibition at 1 μM): 16%
Compound: Cc1c(O)cccc1-c1ccc2[nH]nc(/C=C/c3ccccc3)c2c1 [15′, 2-Methyl-3-[3-((E)-styryl)-1H-indazol-5-yl]-phenol]

inhibition at 10 µM ([1]; read-out: CHK1 % inhibition @ 10 μM, at 10 μM): 5%
Compound: Cc1c(O)cccc1-c1ccc2[nH]nc(-c3nc4ccccc4[nH]3)c2c1 [10′, 3-[3-(1H-Benzoimidazol-2-yl)-1H-indazol-5-yl]-2-methyl-phenol]

inhibition at 20 µM [1]: 80%
Compound: Fc1ccccc1-c1ccc2[nH]nc(-c3nc4ccccc4[nH]3)c2c1 [Example 6, 3-(1H-Benzoimidazol-2-yl)-5-(2-fluorophenyl)-1H-Indazole]
